What was measured:
Assay in all cases: relative viability (nuclei count vs DMSO), 5 days (fraction); higher = more cells survive
AZ628 + OSI-027 = compound: CC1=C(C=C(C=C1)NC(=O)C2=CC(=CC=C2)C(C)(C)C#N)NC3=CC4=C(C=C3)N=CN(C4=O)C [AZ628] + COc1cccc2cc(-c3nc([C@H]4CC[C@H](C(=O)O)CC4)n4ncnc(N)c34)[nH]c12 [OSI-027] (partner 0.5 µM)
How it was run: (§1)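 Medians of duplicate plates are given as relative viability. That measure is the nuclei count in treated wells divided by the count in vehicle wells. Counts were taken on 4× images of lung cancer cell lines in 1536-well plates, 5 days after pin-tool dosing the day after seeding with one drug alone or a fixed anchor-drug dose plus five library-drug doses (not always all listed) in √10 steps.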

QS11 + Vorinostat = compound: C1CC2=C(C1)C=C(C=C2)OC3=NC(=C4C(=N3)N(C=N4)CC5=CC=C(C=C5)C6=CC=CC=C6)N[C@@H](CC7=CC=CC=C7)CO [QS11] + O=C(CCCCCCC(=O)Nc1ccccc1)NO [Vorinostat] (partner 1 µM)
How it was run: as §1

Darinaparsin + Alpelisib = compound: C[As](C)SC[C@H](NC(=O)CC[C@H](N)C(=O)O)C(=O)NCC(=O)O [Darinaparsin] + Cc1nc(NC(=O)N2CCC[C@H]2C(N)=O)sc1-c1ccnc(C(C)(C)C(F)(F)F)c1 [Alpelisib] (partner 2 µM)
How it was run: as §1

QS11 + OSI-027 = compound: C1CC2=C(C1)C=C(C=C2)OC3=NC(=C4C(=N3)N(C=N4)CC5=CC=C(C=C5)C6=CC=CC=C6)N[C@@H](CC7=CC=CC=C7)CO [QS11] + COc1cccc2cc(-c3nc([C@H]4CC[C@H](C(=O)O)CC4)n4ncnc(N)c34)[nH]c12 [OSI-027] (partner 0.5 µM)
How it was run: as §1

Cell Line	relative viability (AZ628 + OSI-027; first compound 0.08 µM)	relative viability (AZ628 + OSI-027; first compound 0.253 µM)	relative viability (AZ628 + OSI-027; first compound 0.8 µM)	relative viability (AZ628 + OSI-027; first compound 2.53 µM)	relative viability (AZ628 + OSI-027; first compound 8 µM)	relative viability (QS11 + Vorinostat; first compound 0.08 µM)	relative viability (QS11 + Vorinostat; first compound 0.253 µM)	relative viability (QS11 + Vorinostat; first compound 0.8 µM)	relative viability (QS11 + Vorinostat; first compound 2.53 µM)	relative viability (QS11 + Vorinostat; first compound 8 µM)	relative viability (Darinaparsin + Alpelisib; first compound 0.08 µM)	relative viability (Darinaparsin + Alpelisib; first compound 0.8 µM)	relative viability (Darinaparsin + Alpelisib; first compound 2.53 µM)	relative viability (Darinaparsin + Alpelisib; first compound 8 µM)	relative viability (QS11 + OSI-027; first compound 0.08 µM)	relative viability (QS11 + OSI-027; first compound 0.253 µM)	relative viability (QS11 + OSI-027; first compound 0.8 µM)	relative viability (QS11 + OSI-027; first compound 2.53 µM)	relative viability (QS11 + OSI-027; first compound 8 µM)
NCI-H1975	0.726	0.619	0.483	0.503	0.373	0.669	0.783	0.752	0.795	0.654	0.758	0.777	0.483	0.704	0.737	0.674	0.741	0.659	0.805
NCI-H1395	0.652	0.544	0.625	0.56	0.554	0.649	0.752	0.772	0.814	0.823	1.17	0.912	0.909	0.945	0.603	0.718	0.626	0.735	0.637
SW 1573	0.669	0.555	0.359	0.362	0.26	0.912	0.629	0.52	0.296	0.253	0.744	0.729	0.472	0.832	0.583	0.655	0.734	0.465	0.278
NCI-H441	0.801	0.558	0.634	0.588	0.492	0.855	0.857	0.658	0.53	0.717	0.774	0.635	0.809	0.893	0.614	0.619	0.76	0.566	0.548
HCC-366	0.895	0.63	0.662	0.62	0.209	0.353	0.283		0.152	0.161	0.753	0.424	0.329	0.706	0.877	0.749		0.742	0.257
NCI-H1915	0.447	0.476	0.428	0.355	0.243	0.522	0.528		0.467	0.391	1.12	1.06	1.03	1.11	0.61	0.617		0.622	0.591

From the supplement of paper PMC10307832
